From US20110275703A1, “SUBSTITUTED SPIROKETAL DERIVATIVES AND USE THEREOF AS THERAPEUTIC DRUG FOR DIABETES” (CHUGAI SEIYAKU KABUSHIKI KAISHA, priority 2007, published 2011)
pIC50: −log10 of the molar value. Like-named read-outs stand apart in the source and are kept apart here.

How the values were obtained:
human SGLT2 = target: T1, human SGLT2 (Homo sapiens, UniProt P31639); test: Inhibitory activity against methyl-α-D-glucopyranoside uptake, CHO cells stably expressing human SGLT2; assay type: cell-based; conditions: for hSGLT2 selectivity: matches hSGLT1 IC50 / hSGLT2 IC50 (formula not stated)
T1 construct: expressed in transfected cells; host or cells: CHO-K1
T1 sequence (P31639 1-672): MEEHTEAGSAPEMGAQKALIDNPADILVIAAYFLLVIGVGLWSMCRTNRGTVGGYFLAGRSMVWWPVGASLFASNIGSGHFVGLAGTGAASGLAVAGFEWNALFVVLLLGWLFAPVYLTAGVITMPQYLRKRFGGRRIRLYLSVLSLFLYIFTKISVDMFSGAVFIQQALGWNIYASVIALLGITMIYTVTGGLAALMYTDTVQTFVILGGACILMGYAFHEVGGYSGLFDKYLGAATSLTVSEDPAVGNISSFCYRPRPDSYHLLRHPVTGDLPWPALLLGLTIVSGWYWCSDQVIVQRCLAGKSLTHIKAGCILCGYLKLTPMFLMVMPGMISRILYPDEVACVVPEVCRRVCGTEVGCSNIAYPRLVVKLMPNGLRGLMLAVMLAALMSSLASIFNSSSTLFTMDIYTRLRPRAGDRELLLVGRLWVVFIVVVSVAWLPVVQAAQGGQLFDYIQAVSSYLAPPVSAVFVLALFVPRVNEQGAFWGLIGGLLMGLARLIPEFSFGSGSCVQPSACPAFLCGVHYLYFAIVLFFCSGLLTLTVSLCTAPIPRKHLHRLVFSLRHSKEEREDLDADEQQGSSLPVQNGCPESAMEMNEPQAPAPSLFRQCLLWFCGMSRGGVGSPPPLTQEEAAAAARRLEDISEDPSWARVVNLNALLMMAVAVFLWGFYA
Method in brief: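 CHO-K1 cells stably expressing human SGLT2 were pre-incubated in sodium-free choline buffer (pH 7.4), then exposed 45 min at 37°C to test compound in sodium buffer containing 1 mM [14C]methyl-α-D-glucopyranoside. Sodium-free buffer gave baseline uptake. After washing, cells were lysed with NaOH/SDS.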

db/db mice = test: Study for glucose lowering effect in db/db mouse; assay type: in vivo; conditions: oral, 0.3 mg/kg, relative to control group; for inhibition in vivo at 0.3 mg/kg: Mus musculus, 6 hours, Table 3-2, read-out: Percent reduction of blood glucose (%) 6 hours after administration; for Percent reduction of blood glucose (%) 24 hours after administration: Table 3-2
Method in brief: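 Male db/db mice, 9–11 weeks old, were grouped (n=5) by body weight/blood glucose and dosed orally by gavage with compound in 0.5% CMC at 0.3 mg/10 mL or 3 mg/10 mL (10 mL/kg); controls got vehicle. Tail blood glucose was measured by hexokinase method before and serially after dosing, expressed as % reduction versus control.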

[1] = Table 2-2, read-out: hhSGLT2 IC50 value
[2] = inhibition of SGLT2, Table 2-1, read-out: IC50 value

In the case of `OC[C@H]1O[C@]2(OCc3cc(Cl)c(Cc4ccc(CCF)cc4)cc32)[C@H](O)[C@@H](O)[C@@H]1O` [Example 8, (1S,3′R,4′S,5′S,6′R)-5-chloro-6-[(4-(2-fluoroethyl)phenyl)methyl]-3′,4′,5′,6′-tetrahydro-6′-(hydroxymethyl)-spiro[isobenzofuran-1(3H),2′-[2H]pyran]-3′,4′,5′-triol], the pIC50 (human SGLT2; [1]) was 8.96, the pIC50 (human SGLT2; [2]) was 8.96 and the hSGLT2 selectivity (human SGLT2) was 323. The inhibition in vivo at 0.3 mg/kg (db/db mice) was 48% and the “Percent reduction of blood glucose (%) 24 hours after administration” value (db/db mice) was 27%.

In the case of `CCCc1ccc(Cc2cc3c(cc2Cl)CO[C@]32O[C@H](CO)[C@@H](O)[C@H](O)[C@H]2O)cc1` [Example 9, (1S,3′R,4′S,5′S,6′R)-5-chloro-3′,4′,5′,6′-tetrahydro-6′-(hydroxymethyl)-6-[(4-propylphenyl)methyl]-spiro[isobenzofuran-1(3H),2′-[2H]pyran]-3′,4′,5′-triol], the pIC50 (human SGLT2; [1]) was 8.64, the pIC50 (human SGLT2; [2]) was 8.64 and the hSGLT2 selectivity (human SGLT2) was 590. The inhibition in vivo at 0.3 mg/kg (db/db mice) was 48% and the “Percent reduction of blood glucose (%) 24 hours after administration” value (db/db mice) was 28%.

For `OC[C@H]1O[C@]2(OCc3cc(Cl)c(Cc4ccc5ccccc5c4)cc32)[C@H](O)[C@@H](O)[C@@H]1O` [Example 7, (1S,3′R,4′S,5′S,6′R)-5-chloro-3′,4′,5′,6′-tetrahydro-6′-(hydroxymethyl)-6-(2-naphthylmethyl)-spiro[isobenzofuran-1(3H),2′-[2H]pyran]-3′,4′,5′-triol], the pIC50 (human SGLT2; [1]) was 8.77, the pIC50 (human SGLT2; [2]) was 8.77 and the hSGLT2 selectivity (human SGLT2) was 224. For the same compound, the inhibition in vivo at 0.3 mg/kg (db/db mice) was 54% and the “Percent reduction of blood glucose (%) 24 hours after administration” value (db/db mice) was 42%.

With `CCc1ccc(Cc2cc3c(cc2C)CO[C@]32O[C@H](CO)[C@@H](O)[C@H](O)[C@H]2O)cc1` [Comparative Compound 1, 1,1-anhydro-1-C-[5-(4-ethylphenyl)methyl-2-(hydroxymethyl)-4-methylphenyl]-β-glucopyranose, reference compound] the pIC50 (human SGLT2; [1]) was 8.80 and the hSGLT2 selectivity (human SGLT2) was 83.

`CC(C)c1ccc(Cc2cc3c(cc2Cl)CO[C@]32O[C@H](CO)[C@@H](O)[C@H](O)[C@H]2O)cc1` [Example 15, (1S,3′R,4′S,5′S,6′R)-5-chloro-3′,4′,5′,6′-tetrahydro-6′-(hydroxymethyl)-6-[(4-isopropylphenyl)methyl]-spiro[isobenzofuran-1(3H),2′-[2H]pyran]-3′,4′,5′-triol] was tested, and the pIC50 (human SGLT2; [1]) was 8.77, the pIC50 (human SGLT2; [2]) was 8.77 and the hSGLT2 selectivity (human SGLT2) was 596. For the same compound, the inhibition in vivo at 0.3 mg/kg (db/db mice) was 50% and the “Percent reduction of blood glucose (%) 24 hours after administration” value (db/db mice) was 27%.

`CCc1ccc(Cc2cc3c(cc2Cl)CO[C@]32O[C@H](CO)[C@@H](O)[C@H](O)[C@H]2O)cc1` [Example 1, (1S,3′R,4′S,5′S,6′R)-5-chloro-6-[(4-ethylphenyl)methyl]-3′,4′,5′,6′-tetrahydro-6′-(hydroxymethyl)-spiro[isobenzofuran-1(3H),2′-[2H]pyran]-3′,4′,5′-triol] showed a pIC50 (human SGLT2; [1]) of 8.89, a pIC50 (human SGLT2; [2]) of 8.89 and a hSGLT2 selectivity (human SGLT2) of 155. The inhibition in vivo at 0.3 mg/kg (db/db mice) was 42% and the “Percent reduction of blood glucose (%) 24 hours after administration” value (db/db mice) was 32%.

`Cc1cc2c(cc1Cc1ccc(C(C)C)cc1)[C@]1(OC2)O[C@H](CO)[C@@H](O)[C@H](O)[C@H]1O` [Example 21, (1S,3′R,4′S,5′S,6′R)-3′,4′,5′,6′-tetrahydro-6′-(hydroxymethyl)-6-[(4-isopropylphenyl)methyl]-5-methyl-spiro[isobenzofuran-1(3H),2′-[2H]pyran]-3′,4′,5′-triol] gave a pIC50 (human SGLT2; [1]) of 8.70, a pIC50 (human SGLT2; [2]) of 8.68 and a hSGLT2 selectivity (human SGLT2) of 341. For the same compound, the inhibition in vivo at 0.3 mg/kg (db/db mice) was 51% and the “Percent reduction of blood glucose (%) 24 hours after administration” value (db/db mice) was 33%.

`CCOc1ccc(Cc2cc3c(cc2Cl)CO[C@]32O[C@H](CO)[C@@H](O)[C@H](O)[C@H]2O)cc1` [Example 5, (1S,3′R,4′S,5′S,6′R)-5-chloro-6-[(4-ethoxyphenyl)methyl]-3′,4′,5′,6′-tetrahydro-6′-(hydroxymethyl)-spiro[isobenzofuran-1(3H),2′-[2H]pyran]-3′,4′,5′-triol] was tested, and the pIC50 (human SGLT2; [1]) was 8.82, the pIC50 (human SGLT2; [2]) was 8.82 and the hSGLT2 selectivity (human SGLT2) was 283. For the same compound, the inhibition in vivo at 0.3 mg/kg (db/db mice) was 52% and the “Percent reduction of blood glucose (%) 24 hours after administration” value (db/db mice) was 25%.
